Source: US20100074975A1, “Pharmaceutical composition for the prevention and treatment of liver disease comprising a lonicera caerulea L. Var. Edulis extract” (priority 2005, published 2010)

Tests used:
HepG2 cells [1] = assay: Restoration of growth of cells whose growth is suppressed by ethyl alcohol (SRB method); assay type: cell-based, human; conditions: HepG2, 1.5% ethyl alcohol for 24 hrs
Procedure: After the 96-well plate was washed with physiological saline, ethyl alcohol, which was diluted in culture medium in 1.5% (v/v), was added to each well in which HepG2 cells were cultured. Cell damage was induced using ethyl alcohol for 24 hrs. Thereafter, the culture medium containing ethyl alcohol was removed, and the extract from L. caerulea fruits, which was diluted in culture medium in amounts of 0, 0.125, 0.25, 0.5 and 1 mg/ml, was added to each well. […] Cells in each well were then fixed with 70% acetone for 20 min. […] The absorbance of a well treated with ethyl alcohol alone and the absorbance of each well treated with alcohol plus the extract from L. caerulea fruits were compared with that of a control well which was not treated with ethyl alcohol or with the extract from L. caerulea fruits (FIG. 3).
The reduced absorbance increased in a manner that was dependent on the concentrations of the extract from L. caerulea fruits when the extract was administered at up to 0.5 mg/ml to the well treated with ethyl alcohol.
Thus, the degree of restoration of ethyl alcohol-induced cell growth damage by administration of the extract from L. caerulea fruits was calculated according to Equation 1, and the results are given in Table 1, below. […]

HepG2 cells [2] = conditions: 48 hrs
Procedure: HepG2 cells were seeded in a 96-well plate at a density of 1×10^4 cells per well and incubated in a culture medium supplemented with 10% FBS for 16 hrs. After the 96-well plate was washed with physiological saline, ethyl alcohol, which was diluted in a culture medium in amounts of 0, 0.5, 1.0, 1.5 and 2.0% (v/v), was added to each well in which HepG2 cells were cultured. After incubation for 48 hrs, the cell number in each well was measured using a SRB method.
The culture medium was removed, and the 96-well plate was washed with physiological saline. The cells in each well were then fixed with 70% acetone for 20 min. The fixed cells were dried, stained with an SRB solution for 30 min, and washed with a 1% acetic acid solution five times to eliminate unbound SRB. After the cells were dried again, 10 mM Tris was added to the cells to dissolve cellular proteins and unbound SRB, and absorbance was measured at 562 nm using a spectrophotometer. The results were expressed as a percentage by comparing the absorbance of each well treated with ethyl alcohol with that of a control well not treated with ethyl alcohol (FIG. 2).

In the case of `CCO` [ethyl alcohol], the “absorbance reduced in comparison with the well not treated with ethyl alcohol” value (HepG2 cells [1]) is reported as 22%, the “effect on cell number” value (HepG2 cells [2]; HepG2, ethyl alcohol at concentrations of 1.5% or higher) is reported as “reduced cell number” and the “effect on cell growth” value (HepG2 cells [2]; HepG2, ethyl alcohol at concentrations of up to 1% (v/v)) is reported as “stimulate cell growth”.
